Data on 28 compounds can be found in US7288547B2, “CDK-inhibitory 2-heteroaryl-pyrimidines, their production and use as pharmaceutical agents” (Schering AG, priority 2002, dated 2007).

SMILES strings stand for the structures. pIC50: −log10 of the molar value. Read-outs that look alike come from different tables or passages of the source.

Experiment [1] concerns MCF7. The experiment can be described thus: Proliferation Assay (crystal violet). The class given is cell-based, human. How it is done:
Cultivated human tumor cells (as indicated) were flattened out at a density of 5000 cells/measuring point in a 96-well multititer plate in 200 μl of the corresponding growth medium. After 24 hours, the cells of one plate (zero-point plate) were colored with crystal violet (see below), while the medium of the other plates was replaced by fresh culture medium (200 μl), to which the test substances were added in various concentrations (0 μm, as well as in the range of 0.01-30 μm; the final concentration of the solvent dimethyl sulfoxide was 0.5%). The cells were incubated for 4 days in the presence of test substances. The cell proliferation was determined by coloring the cells with crystal violet: the cells were fixed by adding 20 μl/measuring point of a 11% glutaric aldehyde solution for 15 minutes at room temperature. After three washing cycles of the fixed cells with water, the plates were dried at room temperature. The cells were colored by adding 100 μl/measuring point of a 0.1% crystal violet solution (pH was set at 3 by adding acetic acid). After three washing cycles of the colored cells with water, the plates were dried at room temperature. The dye was dissolved by adding 100 μl/measuring point of a 10% acetic acid solution. The extinction was determined by photometry at a wavelength of 595 nm. The change of cell growth, in percent, was calculated by standardization of the measured values to the extinction values of the zero-point plate (=0%) and the extinction of the untreated (0 μm) cells (=100%).

Experiment [2] deals with T1, CDK2/CycE (Homo sapiens, UniProt P24941).
T1 construct: GST; purchased Proquinase Company, Freiburg; host or cells: baculovirus-infected insect cells (Sf9)
Nature of the experiment: CDK2/CycE Kinase Assay. The class given is biochemical. How it is done:
Recombinant CDK2- and CycE-GST-fusion proteins, purified from baculovirus-infected insect cells (Sf9), were purchased by the Proquinase Company, Freiburg. Histone IIIS, which was used as a kinase substrate, was purchased by the Sigma Company.
The reaction was stopped by adding EDTA solution (250 mmol, pH 8.0, 14 μl/measuring point).
From each reaction batch, 10 μl was applied to P30 filter strips (Wallac Company), and non-incorporated ^33P-ATP was removed by subjecting the filter strips to three washing cycles for 10 minutes each in 0.5% phosphoric acid. After the filter strips were dried for one hour at 70° C., the filter strips were covered with scintillator strips (MeltiLex™ A, Wallac Company) and baked for one hour at 90° C. The amount of incorporated ^33P (substrate phosphorylation) was determined by scintillation measurement in a gamma-radiation measuring device (Wallac).

Setting [3] is: Homo sapiens, MCF7, MCF-7 cells, comparison with known reference compounds, read-out: MCF-7 IC50.
[4] abbreviates: read-out: Inhibition IC50 CDK2/CycE.
[5] abbreviates: Homo sapiens, MCF7, 96 h, MCF7 cells, 4 days incubation, read-out: Proliferation IC50 MCF7.

For `O=C1Cc2c([nH]c3ccc([N+](=O)[O-])cc23)-c2ccccc2N1` [Alsterpaullone, reference compound], in experiment [1] (setting [3]), the pIC50 was 5.92.
On to `C[C@H](CO)Nc1nc(Nc2ccc(S(N)(=O)=O)nc2)ncc1Br` [Example 1.7], for which the pIC50 in experiment [2] (setting [4]) was 8.22.
Turning to `CC(C)[C@H](CO)Nc1nc(Nc2cc(S(N)(=O)=O)sc2Cl)ncc1Br` [Example 1.8], the pIC50 in experiment [2] (setting [4]) is 7.06; in experiment [1] (setting [5]) it was 5.52.
Take `CC(C)[C@H](CO)Nc1nc(Nc2csc(S(N)(=O)=O)c2)ncc1Br` [Example 1.9]: the pIC50 in experiment [2] (setting [4]) is 7.30.
As for `CC(C)[C@H](CO)Nc1nc(Nc2ccc(S(N)(=O)=O)nc2)ncc1Br` [Example 1.11], the pIC50 in experiment [2] (setting [4]) is 7.40; in experiment [1] (setting [5]) it was 5.92.
The matching figures for `CC(O)C(C)Nc1nc(Nc2ccc(S(N)(=O)=O)nc2)ncc1Br` (centres unmarked) [Example 1.12]: 7.66 and 6.62.
In the case of `C[C@@H](O)[C@@H](C)Nc1nc(Nc2ccc(S(N)(=O)=O)nc2)ncc1Br` [Example 1.13], the pIC50 in experiment [2] (setting [4]) was 8.10; in experiment [1] (MCF7 cells, 4 days incubation, read-out: Proliferation IC50 MCF7), > 7.00.
As to `CC(=O)C(C)Nc1nc(Nc2ccc(S(N)(=O)=O)nc2)ncc1Br` (centres unmarked) [Example 1.14], the figures for the pIC50 in experiment [2] (setting [4]) and in experiment [1] (setting [5]) were 7.77 and 6.06, respectively.
With `CC[C@@H](CO)Nc1nc(Nc2ccc(S(N)(=O)=O)nc2)ncc1Br` [Example 1.15], the pIC50 was 7.89 in experiment [2] (setting [4]) and 5.70 in experiment [1] (setting [5]).
On the same counts, the results for `COC[C@H](C)Nc1nc(Nc2ccc(S(N)(=O)=O)nc2)ncc1Br` [Example 1.16] are 7.44 and 5.70.
On the same counts, the results for `CC[C@H](CO)Nc1nc(Nc2ccc(S(N)(=O)=O)nc2)ncc1Br` [Example 1.17] are 8.15 and 6.30.
Turning to `NS(=O)(=O)c1ccc(Nc2ncc(Br)c(NCC3CC3)n2)cn1` [Example 1.19], in experiment [2] (setting [4]), the pIC50 was 7.92.
With `C[C@H](CO)Nc1nc(Nc2ccc(S(=O)(=O)NCCO)nc2)ncc1Br` [Example 1.20], the results for the pIC50 in experiment [2] (setting [4]) and in experiment [1] (setting [5]) were 7.89 and 5.72, respectively.
The matching figures for `NS(=O)(=O)c1ccc(Nc2ncc(Br)c(SCCCCO)n2)cn1` [Example 1.21]: 7.52 and 5.28.
With `CC(CO)N(C)c1nc(Nc2ccc(S(N)(=O)=O)nc2)ncc1Br` (centres unmarked) [Example 3.3], the pIC50 in experiment [2] (setting [4]) was 7.44; in experiment [1] (setting [5]), 6.21.
Take `CC(Nc1nc(Nc2ccc(S(N)(=O)=O)nc2)ncc1Br)C(C)(C)O` (centres unmarked) [Example 3.4]: the pIC50 in experiment [2] (setting [4]) is 7.24; in experiment [1] (setting [5]), 6.08.
The matching figures for `C[C@H](O)[C@H](C)Nc1nc(Nc2ccc(S(N)(=O)=O)nc2)ncc1Br` [Example 3.5]: > 8.00 and 6.06.
On the same counts, the results for `C[C@@H](O)[C@@H](C)Nc1nc(Nc2ccc(S(N)(=O)=O)nc2)ncc1Br` [Example 3.6] are > 8.00 and 7.00.
Turning to `NS(=O)(=O)c1ccc(Nc2ncc(Br)c(NC3CCCCC3)n2)cn1` [Example 3.12], the pIC50 was 7.70 in experiment [2] (setting [4]) and 6.10 in experiment [1] (setting [5]).
On the same counts, the results for `CC1CCCCC1Nc1nc(Nc2ccc(S(N)(=O)=O)nc2)ncc1Br` (centres unmarked) [Example 3.13] are 7.80 and 6.52.
On to `CC(CO)Sc1nc(Nc2ccc(S(N)(=O)=O)nc2)ncc1Br` (centres unmarked) [Example 4.1], for which the pIC50 was > 8.00 in experiment [2] (setting [4]) and 6.21 in experiment [1] (setting [5]).
Turning to `CCC(CO)Sc1nc(Nc2ccc(S(N)(=O)=O)nc2)ncc1Br` (centres unmarked) [Example 4.2], the results for the pIC50 in experiment [2] (setting [4]) and in experiment [1] (setting [5]) were > 8.00 and 6.59, respectively.
The matching figures for `CC(O)C(C)Sc1nc(Nc2ccc(S(N)(=O)=O)nc2)ncc1Br` (centres unmarked) [Example 4.3]: 7.47 and 6.64.
The matching figures for `CCC(Sc1nc(Nc2ccc(S(N)(=O)=O)nc2)ncc1Br)C(C)O` (centres unmarked) [Example 4.6, 5-[5-bromo-4-(1-ethyl-2-hydroxy-propylsulfanyl)-pyrimidin-2-ylamino]-pyridine-2-sulfonic acid amide]: 7.13 and 6.20.
In the case of `CC(Nc1nc(Nc2ccc(S(N)(=O)=O)nc2)ncc1Br)C(C)NC1CC1` (centres unmarked) [Example 6.0, 5-[5-bromo-4-(2-cyclopropylamino-1-methyl-propylamino)-pyrimidin-2-ylamino]-pyridine-2-sulfonic acid amide], the values for the pIC50 in experiment [2] (setting [4]) and in experiment [1] (setting [5]) were 7.60 and 5.64, respectively.
In the case of `O=C1Cc2c([nH]c3ccc(Br)cc23)-c2ccccc2N1` [Kenpaullone, reference compound], the pIC50 in experiment [1] (setting [3]) is 5.22.
For `Cn1cnc2c(NCc3ccccc3)nc(NCCO)nc21` [Olomoucine, reference compound], in experiment [1] (setting [3]), the pIC50 is 4.52.
Consider `CC(C)[C@H](CO)Nc1nc(Nc2cccc(Cl)c2)c2ncn(C(C)C)c2n1` [Purvalanol A, reference compound], for which the pIC50 was 8.00 in experiment [2] (comparison with known reference compounds, read-out: CDK2/CycE IC50) and 5.70 in experiment [1] (setting [3]).
